# Measurements: ChEMBL document CHEMBL2401647, “High potency improvements to weak aryl uracil HCV polymerase inhibitor leads” (Bioorg Med Chem Lett, 2013)
# Experiments:
# Hepatitis C virus [1] = assay: Antiviral activity against Hepatitis C virus genotype 1b infected in human HuH7 cells; assay type: functional, organism-based, Hepacivirus hominis; settings: Huh-7
# Hepatitis C virus [2] = assay: Antiviral activity against Hepatitis C virus genotype 1a infected in human HuH7 cells; assay type: functional, organism-based, Hepacivirus hominis; settings: subtype 1a, Huh-7
# Hepatitis C virus [3] = assay: Inhibition of Hepatitis C virus genotype 1b NS5B polymerase; design: species or system Hepatitis C virus subtype 1b
# [4] = Inhibition of Hepatitis C virus genotype 1a NS5B polymerase; design: species or system Hepatitis C virus subtype 1a
# [5] = Permeability of the compound; assay type: ADME; settings: not told; read-out: permeability
# [6] = Solubility of the compound; assay type: physicochemical
# [7] = AUC in rat; assay type: ADME, organism-based; settings: plasma
# [8] = AUC in po dosed rat; assay type: ADME, organism-based; settings: plasma
# [9] = Half life in iv dosed rat; assay type: ADME, organism-based; settings: in vivo
# [10] = Oral bioavailability in rat; assay type: ADME, organism-based; settings: in vivo
# [11] = Cytotoxicity against human HuH7 cells; assay type: cell-based; settings: Huh-7 cells, read-out: TD50 (the source's name)
EC50 (Hepatitis C virus [1]),EC50 (Hepatitis C virus [2]),IC50 (Hepatitis C virus [3]),IC50 [4],Papp [5],solubility [6],AUC [7],AUC [8],half-life [9],bioavailability [10],Structure (SMILES),CC50 [11]
> 100000 nM,> 100000 nM,23000 nM,71000 nM,,,,,,,CC(C)(C)c1cc(N2CCC(=O)NC2=O)ccc1O,
> 100000 nM,> 100000 nM,,26000 nM,5.5 ×10⁻⁶ cm/s,73 µM,12400 ng·h/mL,5570 ng·h/mL,228 min,45%,COc1ccc(N2CCC(=O)NC2=O)cc1C(C)(C)C,
20 nM,60 nM,20 nM,10 nM,0.5 ×10⁻⁶ cm/s,2 µM,3380 ng·h/mL,50 ng·h/mL,66 min,1.5%,COc1c(C(=O)Nc2ccc(NS(C)(=O)=O)cc2)cc(N2CCC(=O)NC2=O)cc1C(C)(C)C,
6310 nM,18600 nM,230 nM,4280 nM,,,,,,,CC(C)(C)c1cc(N2CCC(=O)NC2=O)cc(C(=O)Nc2ccccc2)c1O,
1030 nM,3670 nM,750 nM,890 nM,1.4 ×10⁻⁶ cm/s,12 µM,2190 ng·h/mL,330 ng·h/mL,30 min,15%,COc1c(C(=O)Nc2ccccc2)cc(N2CCC(=O)NC2=O)cc1C(C)(C)C,
15300 nM,14200 nM,940 nM,8590 nM,,,,,,,CC(C)(C)c1cc(N2CCC(=O)NC2=O)cc(C(=O)NCc2ccccc2)c1O,
4240 nM,> 50000 nM,1240 nM,2060 nM,,,,,,,COc1c(C(=O)Nc2ccc(N)cc2)cc(N2CCC(=O)NC2=O)cc1C(C)(C)C,
,,5120 nM,3420 nM,,,,,,,COc1c(C(=O)Nc2ccc(NC(C)=O)cc2)cc(N2CCC(=O)NC2=O)cc1C(C)(C)C,
50 nM,390 nM,2 nM,20 nM,,,,,,,CC(C)(C)c1cc(N2CCC(=O)NC2=O)cc(C(=O)Nc2ccc(NS(C)(=O)=O)cc2)c1O,
1130 nM,4650 nM,30 nM,180 nM,,,,,,,CC(C)(C)c1cc(N2CCC(=O)NC2=O)cc(C(=O)Nc2ccc(OS(C)(=O)=O)cc2)c1O,> 50000 nM
860 nM,3400 nM,1040 nM,670 nM,,,,,,,COc1c(C(=O)Nc2ccc(OS(C)(=O)=O)cc2)cc(N2CCC(=O)NC2=O)cc1C(C)(C)C,> 50000 nM
1040 nM,3550 nM,30 nM,460 nM,,,,,,,CN(c1ccc(NC(=O)c2cc(N3CCC(=O)NC3=O)cc(C(C)(C)C)c2O)cc1)S(C)(=O)=O,> 50000 nM
560 nM,5490 nM,830 nM,770 nM,,,,,,,COc1c(C(=O)Nc2ccc(N(C)S(C)(=O)=O)cc2)cc(N2CCC(=O)NC2=O)cc1C(C)(C)C,> 50000 nM
7560 nM,27800 nM,50 nM,360 nM,,,,,,,CC(C)(C)c1cc(N2CCC(=O)NC2=O)cc(C(=O)Nc2cccc(NS(C)(=O)=O)c2)c1O,> 50000 nM
94 nM,590 nM,10 nM,38 nM,,,,,,,CC(C)(C)c1cc(-n2ccc(=O)[nH]c2=O)cc(C(=O)Nc2ccc(NS(C)(=O)=O)cc2)c1O,
50 nM,270 nM,30 nM,20 nM,0.2 ×10⁻⁶ cm/s,13 µM,,,,,COc1c(C(=O)Nc2ccc(NS(C)(=O)=O)cc2)cc(-n2ccc(=O)[nH]c2=O)cc1C(C)(C)C,
420 nM,1960 nM,7 nM,50 nM,,,,,,,CC(C)(C)c1cc(N2CCC(=O)NC2=O)cc(C(=O)Nc2ccc(NS(=O)(=O)CCN3CCOCC3)cc2)c1O,
580 nM,5310 nM,310 nM,110 nM,0.1 ×10⁻⁶ cm/s,74 µM,2540 ng·h/mL,,36 min,0%,COc1c(C(=O)Nc2ccc(NS(=O)(=O)CCN3CCOCC3)cc2)cc(N2CCC(=O)NC2=O)cc1C(C)(C)C,
